Eight molecules from ChEMBL document CHEMBL1201862, “PubChem BioAssay data set” (2004) can be followed below.

Test systems include EKVX; HCC 2998; HOP-92; IGROV-1; K562; LOX IMVI; M14; NCI-H226; NCI-H23; NCI-H460; RXF 393; SF-295; SN12C; SNB-19; SNB-75; UACC-257; OVCAR-3; UO-31; CCRF-CEM; HL-60.
What all share (assay): NCI anticancer screen, dose series, 48 h

The structures appear in SMILES notation.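 Five concentrations, 48 hours, 96-well plates. GI50 = concentration required for 50% inhibition of growth.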 Calls of active or inactive are those of the source. Cut-off read from the data, not from the text of the source: active = GI50 up to about 1.1 µM and inactive = higher.

In the case of `Cc1nc2ccccc2nc1N1CCCC1`, the GI50 is 34.2 µM (inactive) in the experiment on EKVX; > 100 µM (inactive) in the experiment with HCC 2998; > 100 µM (inactive) in the experiment with HOP-92; > 100 µM (inactive) in the experiment on IGROV-1; > 100 µM (inactive) in the experiment on K562; > 100 µM (inactive) in the experiment on LOX IMVI. Further, the GI50 in the experiment on M14, in the experiment with NCI-H226, with NCI-H23, in the experiment on NCI-H460, in the experiment with RXF 393 and in the experiment on SF-295 was > 100 µM (inactive) throughout. The GI50 in the experiment on SN12C is > 100 µM (inactive); in the experiment with SNB-19 it was > 100 µM (inactive); with SNB-75 it was 68.2 µM (inactive); in the experiment on UACC-257 it was > 100 µM (inactive).

In the case of `CC(/C=N\NC(=S)N1CCCCC1)=N/NC(=S)N1CCCCC1`, the GI50 in the experiment on EKVX was 1.88 µM (inactive); with HCC 2998 it was 1.63 µM (inactive); in the experiment on HOP-92 it was 2.38 µM (inactive); with IGROV-1 it was 1.04 µM (active); in the experiment on K562, 1.12 µM (active); in the experiment with LOX IMVI it was 0.82 µM (active). The GI50 with M14 was 1.28 µM (inactive); in the experiment with NCI-H226, 1.09 µM (active); in the experiment with NCI-H23 it was 2.42 µM (inactive); with NCI-H460 it was 0.358 µM (active); in the experiment with OVCAR-3, 1.53 µM (inactive); in the experiment on RXF 393, 2.01 µM (inactive). Besides, the GI50 in the experiment with SF-295 was 0.627 µM (active); in the experiment on SN12C, 1.35 µM (inactive); with SNB-19, 2.14 µM (inactive); in the experiment with SNB-75 it was 1.69 µM (inactive); in the experiment with UACC-257, 2.94 µM (inactive); in the experiment on UO-31, 0.649 µM (active).

For `CC(NC(=O)C(N)CC(=O)O)NC(=O)N1CCCC1` (stereo not drawn), the GI50 in the experiment on CCRF-CEM, in the experiment with EKVX, in the experiment on HCC 2998, with HOP-92, with IGROV-1 and in the experiment on K562 was > 100 µM (inactive) in each case. Moreover, the GI50 with LOX IMVI, in the experiment with M14, with NCI-H226, in the experiment with NCI-H23, in the experiment with NCI-H460 and with OVCAR-3 was > 100 µM (inactive) in each case. In addition, the GI50 with RXF 393, with SF-295, with SN12C, in the experiment with SNB-19, in the experiment on SNB-75 and in the experiment with UACC-257 was > 100 µM (inactive) throughout. The GI50 in the experiment on UO-31 was > 100 µM (inactive).

Consider `CCCC[Si](CCCC)(CCCC)O[C@@H](/C=C/C(=O)OCC)[C@H](Cc1ccccc1)O[Si](CCCC)(CCCC)CCCC`, for which the GI50 in the experiment with CCRF-CEM, in the experiment on EKVX, in the experiment with HCC 2998, with HOP-92, in the experiment on IGROV-1 and in the experiment with K562 was > 100 µM (inactive) throughout. Besides, the GI50 in the experiment with LOX IMVI, in the experiment with NCI-H226, with NCI-H23, in the experiment on NCI-H460, with RXF 393 and in the experiment on SF-295 was > 100 µM (inactive) each time. For the same molecule, the GI50 in the experiment on SN12C, with SNB-19, in the experiment on SNB-75, in the experiment with UACC-257 and in the experiment on UO-31 was > 100 µM (inactive) in each case.

On to `CC1(C)OC2C(CO)OC(n3ccc(=O)[nH]c3=O)C2O1` (stereo not drawn), for which the GI50 with CCRF-CEM was > 100 µM (inactive); with EKVX it was > 100 µM (inactive); with HCC 2998 it was > 100 µM (inactive); in the experiment on HL-60, > 100 µM (inactive); in the experiment on HOP-92 it was 83.2 µM (inactive); in the experiment on IGROV-1 it was > 100 µM (inactive). Also, the GI50 with K562, in the experiment on LOX IMVI, in the experiment with M14, in the experiment with NCI-H226, in the experiment with NCI-H23 and with NCI-H460 was > 100 µM (inactive) each time. The GI50 with OVCAR-3, with RXF 393, with SF-295, in the experiment on SN12C, in the experiment with SNB-19 and with UACC-257 was > 100 µM (inactive) throughout. Besides, in the experiment on UO-31, the GI50 was > 100 µM (inactive).

For `Cc1ccc(S(=O)(=O)n2cnc(CC(NC(=O)C3CCC(=O)N3C(=O)OCc3ccccc3)C(=O)N3CCCC3C(=O)NN)c2)cc1` (stereo not drawn), the GI50 with EKVX, in the experiment on HCC 2998, in the experiment on HL-60, in the experiment with HOP-92, in the experiment on IGROV-1 and in the experiment on K562 was > 100 µM (inactive) each time. In addition, the GI50 was > 100 µM (inactive) in the experiment on M14; 24.8 µM (inactive) in the experiment with NCI-H226; > 100 µM (inactive) with NCI-H23; > 100 µM (inactive) with NCI-H460; > 100 µM (inactive) in the experiment with SN12C; 48.8 µM (inactive) in the experiment on SNB-19. Moreover, the GI50 was > 100 µM (inactive) with SNB-75, > 100 µM (inactive) in the experiment on UACC-257 and 1.02 µM (active) in the experiment with UO-31.

Regarding `COc1ccc2[nH]c3c(c2c1)CC(=O)N1CCC[C@H](C1)CC31OCCCO1`, the GI50 was 64.6 µM (inactive) in the experiment with CCRF-CEM; > 100 µM (inactive) with EKVX; > 100 µM (inactive) with HCC 2998; 55 µM (inactive) in the experiment with HOP-92; 92.7 µM (inactive) in the experiment with IGROV-1; > 100 µM (inactive) with M14. Besides, the GI50 was > 100 µM (inactive) in the experiment on NCI-H226; > 100 µM (inactive) in the experiment with NCI-H23; > 100 µM (inactive) in the experiment with NCI-H460; > 100 µM (inactive) in the experiment with OVCAR-3; 44.5 µM (inactive) in the experiment on RXF 393; > 100 µM (inactive) with SF-295. In addition, the GI50 in the experiment on SN12C was > 100 µM (inactive); in the experiment on SNB-19, > 100 µM (inactive); in the experiment with SNB-75, 86.9 µM (inactive); with UACC-257, > 100 µM (inactive); in the experiment with UO-31, > 100 µM (inactive).

With `C[C@H](OC(=O)/C=C/c1ccc(O)c(O)c1)[C@H](C)OC(=O)/C=C/c1ccc(O)c(O)c1`, the GI50 is 14.7 µM (inactive) in the experiment with EKVX; 11.5 µM (inactive) in the experiment on HCC 2998; 15 µM (inactive) in the experiment on HOP-92; 5.2 µM (inactive) with IGROV-1; 4.61 µM (inactive) with K562; 3.35 µM (inactive) with LOX IMVI. Besides, the GI50 in the experiment with M14 was 6.19 µM (inactive); in the experiment with NCI-H23, 4.29 µM (inactive); in the experiment with NCI-H460, 4.11 µM (inactive); in the experiment with OVCAR-3 it was 4.24 µM (inactive); in the experiment on RXF 393, 6.87 µM (inactive); with SF-295, 6.27 µM (inactive). The GI50 with SN12C was 11.5 µM (inactive); with SNB-19 it was 7.93 µM (inactive); with SNB-75, 15.7 µM (inactive); with UACC-257, 10.1 µM (inactive); in the experiment with UO-31, 4.8 µM (inactive).
